Entries after “also recorded” stand apart in the source; their conditions may differ.

The values that follow come from patent US10653670B2, “Use of indole compounds for fat reduction and skin and soft tissue tightening” (Alevere Medical Corporation, priority 2013, dated 2020).

The test system of one data set is adipocytes. The data set is described as follows: LIVE/DEAD calcein/ethidium bromide assay, adipocyte kill rate. It counts as cell-based, human. The settings on record: for Adipocyte, averaged ethidium numbers: kill rate (ethidium), all tissue types on the same plate; for adipocyte kill rate / aggressiveness: Example 2, FIGS. 5-8 and table. How it is done:
(§1) The time and concentration dependent effects of drug substance on both cell viability and toxicity were evaluated using a two-color fluorescence assay that measures plasma membrane integrity and intracellular enzyme activity. Live cells are determined by the strong fluorescence of calcein AM upon enzymatic conversion. […] The ratio of ethidium to calcein fluorescence is an excellent measure of the relative amount of live and dead cells.
(§2) Initial screening was performed using a variety of cell viability and cytotoxicity assays, including Presto Blue® (Invitrogen, Grand Island, N.Y.), Alamar Blue® (Invitrogen, Grand Island, N.Y.), Cyto-Tox One® (Promega, Madison, Wis.), and Cell Titer Glo® (Promega, Madison, Wis.). […] An MTT terazolium assay was performed, as well as LDH and ATP based assays. […] The LIVE/DEAD® for mammalian cells assay was used. LIVE/DEAD® for mammalian cells assay is a calcein (live read)/ethidium bromide (dead) multiplex assay.
(§3) A sample of DMSO/PBS was a negative control. A sample of Aqualyx® was a positive control. In the table, 24M is phosphatidylcholine 25 mg/ml plus deoxycholate 12 mg/and 25N is C 50/DC24; these were positive controls. The numbers in the table refer to averaged ethidium numbers. The percentages represent the relative kill rate for each cell type when rated against the adipocyte kill rate for that compound. All tissue types were tested on the same plate against adipocytes in order to standardize results.
(§4) Over seventy compounds of the embodiments were tested for adipocytolysis, then for tissue preference. A consistent assay with multiplex information was a calcein/ethidium bromide assay that assesses cell viability and cell death simultaneously. Cell viability was checked using the Countess device. All plates were inoculated with 100 microliters of the appropriate cell types. A 6 well repeat was used to verify results. Cell types used included cultured human adult derived adipocytes, dermal fibroblasts, skeletal muscle cells, and endothelial cells (Cell Applications, Inc., San Diego, Calif.). Human peripheral nerve cells (Innoprot, Spain) were also used.
(§5) Compounds were formulated using a DMSO/PBS excipient. A 10 mg/ml concentration was used. One hundred microliters of test compound was inserted into 6 wells of 5 cell types, placed in adjacent rows. The plates were incubated for 4 hours. Indicator was added to each well, and plates were read at 45 minutes using a fluorescence spectrophotometer (Molecular Devices, Sunnyvale, Calif.).

The subject of the next data set is nerve cells. It counts as cell-based. The settings on record: for Nerve, averaged ethidium numbers: kill rate (ethidium), same plate as adipocytes; for Nerve, relative kill rate rated against the adipocyte kill rate: percentage in brackets; for toxicity to nerve cells: Example 2, FIGS. 6-8. How it is done: as §1, §2, §3, §4, §5
Another data set deals with dermal fibroblasts. The format is cell-based. The settings on record: for Dermis, averaged ethidium numbers: kill rate (ethidium), same plate as adipocytes; for Dermis, relative kill rate rated against the adipocyte kill rate: percentage in brackets; for toxicity to dermis / dermal fibroblasts: Example 2, FIGS. 6-8. The method, then: as §1, §2, §3, §4, §5
A further data set has as its system skeletal muscle cells. The data set is described as follows: LIVE/DEAD calcein/ethidium bromide assay, muscle cell kill rate. The format is cell-based, human. The settings on record: for Muscle, averaged ethidium numbers: kill rate (ethidium), same plate as adipocytes; for Muscle, relative kill rate rated against the adipocyte kill rate: percentage in brackets. How it is done: as §1, §2, §3, §4, §5

The next data set relates to endothelial cells. The data set is described as follows: LIVE/DEAD calcein/ethidium bromide assay, endothelial cell kill rate. The format is cell-based, human. The settings on record: for Endothelial, averaged ethidium numbers: kill rate (ethidium), same plate as adipocytes; for Endothelial, relative kill rate rated against the adipocyte kill rate: percentage in brackets. The method, then:
as §1, §2, §3, §4, §5

For data set [1], the system named is adipocytes over nerve cells, dermal cells, muscle cells, and endothelial cells. Briefly: LIVE/DEAD assay, tissue preference (adipocytes versus other cell types). The format is cell-based, human. The settings on record: for tissue specificity / tissue preference: Example 2, FIGS. 5-8 and table, 2 and 5 hours in FIGS. 6-8; for tissue preference for adipocytes: Example 2.

In the case of `O=Cc1c[nH]c2ccccc12` [Compound 1, 1H-indole-3-carbaldehyde], the “Adipocyte, averaged ethidium numbers” value with adipocytes is reported as 53. Also, the “Nerve, averaged ethidium numbers” value in the data set on nerve cells is given as 60. In addition, the “Dermis, averaged ethidium numbers” value in the data set with dermal fibroblasts was found to be 56. The “Muscle, averaged ethidium numbers” value in the data set on skeletal muscle cells is reported as 82. In addition, the “Endothelial, averaged ethidium numbers” value in the data set on endothelial cells is given as 98. In addition, the “tissue specificity / tissue preference” value in data set [1] was “no preference”.

For `O=Cc1ccc2[nH]ccc2c1` [Compound 3, 1H-indole-5-carbaldehyde], in the data set on adipocytes, the “Adipocyte, averaged ethidium numbers” value is recorded as 42.5. Moreover, in the data set on nerve cells, the “Nerve, averaged ethidium numbers” value was 26 and the “Nerve, relative kill rate rated against the adipocyte kill rate” value (“Nerve, relative kill rate rated” for short) is recorded as 61%. Also, in the data set with dermal fibroblasts, the “Dermis, averaged ethidium numbers” value is reported as 26.5 and the “Dermis, relative kill rate rated against the adipocyte kill rate” value (“Dermis, relative kill rate rated” below) is 62%. In addition, in the data set on skeletal muscle cells, the “Muscle, averaged ethidium numbers” value is listed as 25 and the “Muscle, relative kill rate rated against the adipocyte kill rate” value (shortened to “Muscle, relative kill rate rated”) was 59%. Also, in the data set with endothelial cells, the “Endothelial, averaged ethidium numbers” value was 25 and the “Endothelial, relative kill rate rated against the adipocyte kill rate” value (“Endothelial, relative kill rate rated” for short) is 59%. Also, in data set [1], the “tissue specificity / tissue preference” value is “moderate preference”.

`O=Cc1cccc2cc[nH]c12` [Compound 4, 1H-indole-7-carbaldehyde]: in the data set on adipocytes, the “adipocyte kill rate / aggressiveness” value is on record as “less aggressive” and the “Adipocyte, averaged ethidium numbers” value was 127. For the same molecule, in the data set with nerve cells, the “Nerve, averaged ethidium numbers” value is listed as 66 and the “Nerve, relative kill rate rated” value worked out at 52%. In the data set on dermal fibroblasts, the “Dermis, averaged ethidium numbers” value was found to be 79 and the “Dermis, relative kill rate rated” value was found to be 62%. In the data set with skeletal muscle cells, the “Muscle, averaged ethidium numbers” value was 99 and the “Muscle, relative kill rate rated” value is reported as 78%. In the data set with endothelial cells, the “Endothelial, averaged ethidium numbers” value is 86 and the “Endothelial, relative kill rate rated” value was 63%. In addition, in data set [1], the “tissue preference for adipocytes” value was “about 50%” and the “tissue specificity / tissue preference” value is reported as “shows specificity for adipocyte killing”.

As for `O=Cc1cccc2[nH]ccc12` [Compound 5, 1H-indole-4-carbaldehyde], in the data set with adipocytes, the “Adipocyte, averaged ethidium numbers” value is listed as 36. In the data set on nerve cells, the “toxicity to nerve cells” value is recorded as “more nerve preservation”; the “Nerve, averaged ethidium numbers” value is 17; the “Nerve, relative kill rate rated” value was 47%. Also, in the data set with dermal fibroblasts, the “toxicity to dermis / dermal fibroblasts” value is recorded as “late dermal spike”; the “Dermis, averaged ethidium numbers” value was determined as 17; the “Dermis, relative kill rate rated” value worked out at 47%. In addition, in the data set with skeletal muscle cells, the “Muscle, averaged ethidium numbers” value is recorded as 27 and the “Muscle, relative kill rate rated” value was 75%. Besides, in the data set with endothelial cells, the “Endothelial, averaged ethidium numbers” value is recorded as 16 and the “Endothelial, relative kill rate rated” value is given as 44%. Besides, the “tissue preference for adipocytes” value in data set [1] was “about 50%”.

As for `O=Cc1c[nH]c2c3c(ccc12)CCC3` [Compound 7, 1,6,7,8-tetrahydrocyclopenta[g]indole-3-carbaldehyde], the “Adipocyte, averaged ethidium numbers” value in the data set on adipocytes was 196. Besides, in the data set with nerve cells, the “Nerve, averaged ethidium numbers” value is recorded as 56 and the “Nerve, relative kill rate rated” value is 30%. In the data set on dermal fibroblasts, the “Dermis, averaged ethidium numbers” value was 103 and the “Dermis, relative kill rate rated” value stood at 53%. For the same molecule, in the data set on skeletal muscle cells, the “Muscle, averaged ethidium numbers” value is on record as 119 and the “Muscle, relative kill rate rated” value is 61%. Also, in the data set on endothelial cells, the “Endothelial, averaged ethidium numbers” value is 69 and the “Endothelial, relative kill rate rated” value is on record as 35%. Further, the “tissue specificity / tissue preference” value in data set [1] is reported as “not tissue preference”.

Turning to `O=C(O)CCCc1c[nH]c2ccccc12` [Compound 10, 4-(1H-indol-3-yl) butanoic acid], in the data set on adipocytes, the “adipocyte kill rate / aggressiveness” value was “most aggressive” and the “Adipocyte, averaged ethidium numbers” value was 45. In addition, in the data set with nerve cells, the “Nerve, averaged ethidium numbers” value was determined as 12 and the “Nerve, relative kill rate rated” value amounted to 27%. For the same molecule, in the data set with dermal fibroblasts, the “Dermis, averaged ethidium numbers” value is recorded as 10 and the “Dermis, relative kill rate rated” value was found to be 22%. Moreover, in the data set on skeletal muscle cells, the “Muscle, averaged ethidium numbers” value was 13 and the “Muscle, relative kill rate rated” value is given as 29%. In the data set on endothelial cells, the “Endothelial, averaged ethidium numbers” value is 16.5 and the “Endothelial, relative kill rate rated” value is given as 37%.

`O=C(O)c1cccc2[nH]ccc12` [Compound 27, 1H-indole-4-carboxylic acid]: the “tissue specificity / tissue preference” value in data set [1] is recorded as “high specificity”.

As to `O=C(O)c1ccc2[nH]ccc2c1` [Compound 28, 1H-indole-5-carboxylic acid], in the data set on adipocytes, the “adipocyte kill rate / aggressiveness” value was “high kill rate”. For the same molecule, the “tissue specificity / tissue preference” value in data set [1] is “high specificity”.

On to `O=C(O)c1c[nH]c2ccccc12` [Compound 30, 1H-indole-3-carboxylic acid], for which the “tissue preference for adipocytes” value in data set [1] is “about 50%”.

`O=C(O)c1cc2cc(Br)ccc2[nH]1` [Compound 40, 5-bromo-1H-indole-2-carboxylic acid]: in the data set with adipocytes, the “adipocyte kill rate / aggressiveness” value was “moderate” and the “Adipocyte, averaged ethidium numbers” value is given as 123. In the data set on nerve cells, the “Nerve, averaged ethidium numbers” value amounted to 61 and the “Nerve, relative kill rate rated” value was 50%. Also, in the data set with dermal fibroblasts, the “Dermis, averaged ethidium numbers” value worked out at 33 and the “Dermis, relative kill rate rated” value amounted to 27%. In the data set on skeletal muscle cells, the “Muscle, averaged ethidium numbers” value is 36 and the “Muscle, relative kill rate rated” value is listed as 29%. In the data set with endothelial cells, the “Endothelial, averaged ethidium numbers” value was 40 and the “Endothelial, relative kill rate rated” value was 33%. Further, in data set [1], the “tissue specificity / tissue preference” value is on record as “most strongly tissue preferential; also recorded: tissue specificity at two time points; also recorded: high specificity”.

In the case of `O=Cc1c[nH]c2cccc(OCc3ccccc3)c12` [Compound 43, 4-(benzyloxy)-1H-indole-3-carbaldehyde], in the data set with adipocytes, the “adipocyte kill rate / aggressiveness” value is reported as “aggressive; also recorded: adipolytic” and the “Adipocyte, averaged ethidium numbers” value is given as 340. In the data set on nerve cells, the “toxicity to nerve cells” value was “low kill rate”; the “Nerve, averaged ethidium numbers” value is 58; the “Nerve, relative kill rate rated” value was 17%. For the same molecule, in the data set on dermal fibroblasts, the “toxicity to dermis / dermal fibroblasts” value was “low kill rate”; the “Dermis, averaged ethidium numbers” value is on record as 74; the “Dermis, relative kill rate rated” value stood at 22%. For the same molecule, in the data set with skeletal muscle cells, the “Muscle, averaged ethidium numbers” value is on record as 73 and the “Muscle, relative kill rate rated” value was 21%. Moreover, in the data set on endothelial cells, the “Endothelial, averaged ethidium numbers” value is reported as 92.5 and the “Endothelial, relative kill rate rated” value is given as 27%. Also, the “tissue specificity / tissue preference” value in data set [1] was “most strongly tissue preferential”.

On to `O=C(O)[C@H]1Cc2c([nH]c3ccccc23)[C@@H](c2ccc(O)cc2O)N1` [Compound 78, (1R,3R)-1-(2,4-dihydroxyphenyl)-2,3,4,9-tetrahydro-1H-pyrido [3,4-b]indole-3-carboxylic acid], for which the “Adipocyte, averaged ethidium numbers” value in the data set on adipocytes is on record as 29.5. In addition, in the data set on dermal fibroblasts, the “Dermis, averaged ethidium numbers” value was determined as 8.3 and the “Dermis, relative kill rate rated” value amounted to 28%. Further, in the data set on skeletal muscle cells, the “Muscle, averaged ethidium numbers” value is 8.7 and the “Muscle, relative kill rate rated” value is recorded as 29%. Besides, in the data set with endothelial cells, the “Endothelial, averaged ethidium numbers” value is reported as 9.8 and the “Endothelial, relative kill rate rated” value is 33%. Moreover, in data set [1], the “tissue specificity / tissue preference” value is “high specificity”.
